What all share (assay type): in vivo
Assay [1] deals with Soybeans (Glycine max). Put plainly: Foliar application to soybeans, effects on water consumption, plant height, chlorophyll content. As to conditions: soybean, 26 days after spray; for water consumption: foliar spray 100 ga/ha (EC050) 21 days after sowing, no watering after spray; for plant height / chlorophyll content: foliar spray 100 ga/ha (EC050); for chlorophyll content: third trifoliate-leaf. The procedure:
Soybean plants were grown in a climate chamber at 22° C. during 14 h daytime and 20° C. during 10 h night at 70% rel.humidity. Plants were sprayed 21 days after sowing with a 100 ga/ha of the test compound, formulated as a standard EC050. Water status was adjusted befor spray for all pots, and plants not watered anymore after spray. After growing further 26 days in the controlled environment, the plant height, chlorophyll content of the third trifoliate-leaf, and water consumption was determined.

Assay [2] has as its system Soybeans (Glycine max). Put plainly: Foliar application to soybeans, effects on yield (number and size of pods, root parameters). As to conditions: 68 g AI/ha foliar, 29DAA; for No. of root tips, Mean (in %) relative to check / Root length, Mean (in %) relative to check: WinRhizo; for Mean no. of pods per plant, only pods >20 mm: check 1.8; for Mean no. of pods per plant, all pods considered: check 5.4; for pod length - sum per trmt (mm), only pods >20 mm: check 276; for pod length - sum per trmt (mm), all pods considered: check 452. The procedure: Three week old soybean plants (5 replicates) were sprayed with respective test solutions. Test solutions contained the formulated test compound and the adjuvant Mero (0.1% v/v). Plants were kept under glasshouse conditions at 22° C. with a photo-period of 14 h. 29d after application the individual number and size of pods per plant were measured. Additionally, the overall root system of individual plants was scanned and analysed by the image analysis software ‘WinRhizo’ (Regent Instruments Inc., 2009). […] The average number of taller pods (related to number of seeds) was increased.

The test system of assay [3] is Spring-wheat. Nature of the assay: Foliar application to spring-wheat, effects on water consumption, plant height. As to conditions: 26 days after spray; for water consumption: foliar spray 50 ga/ha (EC050) 21 days after sowing, no watering after spray; for plant height: foliar spray 50 ga/ha (EC050). The procedure:
Wheat plants were grown in a climate chamber at 18° C., 14 h daytime and 10 h night, at 70% rel.humidity. Plants were sprayed 21 days after sowing with a 50 ga/ha of the test compound, formulated as a standard EC050. Water status was adjusted before spray for all pots and plants not watered anymore after spray. After growing further 26 days in the controlled environment the plant height, and water consumption was determined.

Assay [4] concerns Soybeans (Glycine max). Put plainly: Soil application (drench) to soybeans in rhizoboxes, effects on root system and shoot. As to conditions: 30DAA; for Stem thickness (mm) below respective leaf, Mean / leaf area (cm^2), Mean: 0.12 mg AI per plant drench. The procedure:
Three two-week old soybean plants were transplanted to ‘rhizoboxes’ (ca. 12 L soil volume). One day later 0.12 mg Al of compound T1.070, wherein G is CO2Et, were applied (drench) to each plant. Plants were kept under glasshouse conditions at 22° C. with a photo-period of 14 h. 30 DAA the entire root system per rhizobox was scanned and analysed by the image analysis software ‘WinRhizo’ (Regent Instruments Inc., 2009).

Assay [5] deals with Barley (Hordeum vulqare). Nature of the assay: Foliar application to barley, plant growth effects (plant height, tillers). As to conditions: 12.5 ppm foliar, 9DAA; for av. tillers per plant: check 0. The procedure: Five replicates (pots with three 10d old barley plants each) were sprayed with respective test solutions. Test solutions contained the formulated test compound and the adjuvant Mero (0.1% v/v). Plants were kept under glasshouse conditions at 22° C. with a photo period of 14 h. 9d after application the average plant height per replicate was measured and the number of tillers per replicate was counted. […] Additionally, the number of tillers were increased.

The mark [6] stands for this setting: soybean, drench 0.12 mg AI per plant.
Where [7] appears, read: soybean, drench 0.12 mg AI per plant, entire root system per rhizobox, WinRhizo.

Turning to `CCOC(=O)OC1=C(c2c(C)cc(Cl)cc2C)C(=O)N(C)C12CCN(OC)CC2` [T1.067, wherein G is CO2Et], in assay [1], the water consumption is given as 376 ml/26 days, the plant height came out at 16.5 cm and the chlorophyll content is given as 43.4 reflectance. Moreover, in assay [2], the “No. of root tips, Mean (in %) relative to check” value is recorded as 18.8%; the “Root length, Mean (in %) relative to check” value was found to be 16.1%; the “Mean no. of pods per plant, only pods >20 mm” value turned out to be 3.4; the “Mean no. of pods per plant, all pods considered” value amounted to 6.0. In assay [2], the “pod length - sum per trmt (mm), only pods >20 mm” value amounted to 545 mm and the “pod length - sum per trmt (mm), all pods considered” value was found to be 682 mm. In assay [3], the water consumption turned out to be 219 ml/26 days and the plant height worked out at 26.9 cm.

In assay [1], `CCOC(=O)OC1=C(c2c(C)cc(C)cc2C)C(=O)N(C)C12CCN(OC)CC2` [T1.070, wherein G is CO2Et] registered a water consumption of 393 ml/26 days, a plant height of 17.3 cm and a chlorophyll content of 39.9 reflectance. In assay [2], the “No. of root tips, Mean (in %) relative to check” value came out at 43.7%; the “Root length, Mean (in %) relative to check” value is recorded as 32.0%; the “Mean no. of pods per plant, only pods >20 mm” value is 3.2; the “Mean no. of pods per plant, all pods considered” value was determined as 5.8. Further, in assay [2], the “pod length - sum per trmt (mm), only pods >20 mm” value was found to be 516 mm and the “pod length - sum per trmt (mm), all pods considered” value amounted to 674 mm. Further, the “Stem thickness (mm) below respective leaf, Mean” value (from here on “Stem thickness”) in assay [4] (1st trifoliate leaf, untreated 2.04) is 2.39 mm. Further, in assay [4] (1st trifoliate leaf, untreated 42.95), the “leaf area (cm^2), Mean” value is given as 60.59 cm^2. Also, in assay [4] (1st true leaves, untreated 2.31), the “Stem thickness” value stood at 2.87 mm. Besides, in assay [4] (1st true leaves, untreated 28.54), the “leaf area (cm^2), Mean” value is recorded as 39.82 cm^2. In addition, the “Stem thickness” value in assay [4] (2nd trifoliate leaf, untreated 1.87) is listed as 2.09 mm. The “leaf area (cm^2), Mean” value in assay [4] (2nd trifoliate leaf, untreated 58.76) stood at 72.44 cm^2. Also, the “Stem thickness” value in assay [4] (3rd trifoliate leaf, untreated 1.60) came out at 1.86 mm. Also, the “leaf area (cm^2), Mean” value in assay [4] (3rd trifoliate leaf, untreated 58.01) is 77.72 cm^2. Further, the “Stem thickness” value in assay [4] (4th trifoliate leaf, untreated 1.11) came out at 1.32 mm. Further, in assay [4] (4th trifoliate leaf, untreated 18.09), the “leaf area (cm^2), Mean” value was 27.48 cm^2. Also, in assay [4] (setting [6]), the “Shoot growth (plant growth)” value was “Enhanced plant growth was also observed by fortified shoot growth” and the “Visual impression of root system” value is “clearly enhanced root system”. Also, in assay [4] (setting [7]), the “Root parameters relative to check: Length (cm), rel. to check (0%)” value turned out to be 41.3%; the “Root parameters relative to check: RootVolume (cm3), rel. to check (0%)” value amounted to 52.2%; the “Root parameters relative to check: SurfaceArea (cm2), rel. to check (0%)” value worked out at 46.6%; the “Root parameters relative to check: Tips, rel. to check (0%)” value is 63.1%. Further, in assay [3], the water consumption came out at 208 ml/26 days and the plant height is 27.4 cm.

For the compound `CCOC(=O)OC1=C(c2c(C)cc(Br)cc2C)C(=O)NC12CCN(OC)CC2` [T1iii.66, wherein G is CO2Et], in assay [5], the “av. plant height (cm)” value turned out to be 27.2 cm and the “av. tillers per plant” value is 4.2.

In assay [1], `CCOC(=O)OC1=C(c2c(C)cc(Cl)cc2C)C(=O)NC12CCN(OC)CC2` [T1iii.67, wherein G is CO2Et] gave a water consumption of 379 ml/26 days, a plant height of 16.5 cm and a chlorophyll content of 44.6 reflectance. Further, in assay [5], the “av. plant height (cm)” value stood at 24.4 cm and the “av. tillers per plant” value was found to be 3.8. Also, in assay [3], the water consumption came to 218 ml/26 days and the plant height is given as 27.9 cm.

Source of the values: patent US20140018242A1, “METHOD OF CROP ENHANCEMENT” (SYNGENTA PARTICIPATIONS AG, priority 2010, published 2014).
